Experimental data published in patent publication US20120270844A1, “METHODS FOR TREATING ALZHEIMER'S DISEASE” (aFRAXis, Inc., priority 2009, published 2012).
pIC50: −log10 of the molar value.

Each compound was assayed against PAK4 (Homo sapiens, UniProt O96013) (assay: Z'Lyte fluorescence-based (FRET) PAK kinase assay, PAK4). Conditions: Table 1 of Example 29 (own compound numbering); 5 μM ATP.
Assay type: biochemical
Description: (§1) A fluorescence-based assay format is used to determine IC50 values of test compounds in vitro. Purified PAK kinase is incubated with ATP, and a test compound at various concentrations and a substrate peptide containing two fluorophores. In a second step, the reaction mix is incubated with a site-specific protease that cleaves non-phosphorylated bat not phosphorylated substrate peptide, disrupting the FRET signal generated by the two fluorophores in the cleaved peptide (Z′Lyte™ Kinase assay platform; Life Technologies).
(§2) Reagents: 50 mM HEPES, pH 7.5; 0.01% BRIJ-35; 10 nM MgCl1; 1 mM EGTA, 2 uM substrate peptide Ser/Thr20 (proprietary Life Technologies Sequence), PAK enzyme [2.42-30.8 ng for PAK1, 0.29-6 ng for PAK2, 1.5-20 ng for PAK3 and 0.1-0.86 ng for PAK4; actual enzyme amounts depend on lot activity of the enzyme preparation]
(§3) Test compounds are dissolved in DMSO at various concentrations; the final DMSO concentration in the assay reaction is 1%.
(§4) ATP concentration at Kin apparent is used in the assay [50 ┌M ATP for PAK1 assay, 75 ┌M ATP for PAK2 assay, 100 μM ATP for PAK3 assay, 5 μM ATP for PAK4 assay] in a total assay volume of 10 μl. Assay reactions are incubated at room temperature for 1 hr. Following the kinase reaction, 5 μl of 1:256 dilution of development solution A (Life Technologies) is added and the reaction mix is incubated for an additional 1 hr at room temperature.
(§5) Plates are analyzed in a standard fluorescence plate reader (Tecan or equivalent) using an excitation wavelength of 400 nn and emission wavelengths of 445 nm and 520 nm.
(§6) Inhibition of kinase reaction is determined by emission ratio=emission@445 nm/emission@520 nm
as §1, with “non-phosphorylated but” for “non-phosphorylated bat”, “peptide (Z'Lyte™” for “peptide (Z′Lyte™”, “assay platform” for “assay platform;”
as §2, with “mM MgCl2;” for “nM MgCl1;”
as §4, with “at Km” for “at Kin”, “[50 μMATP” for “[50 ┌M ATP”, “75 µM” for “75 ┌M”, “[…]” for “10 μl.”, “kinase reaction.” for “kinase reaction,”, “[…]” for “5 μl”
(§7) Plates are analyzed in a standard fluorescence plate reader (Teem or equivalent) using an excitation wavelength of 400 nm and emission wavelengths of 445 nm and 520 nm.

Sequence of PAK4 (O96013 whole entry): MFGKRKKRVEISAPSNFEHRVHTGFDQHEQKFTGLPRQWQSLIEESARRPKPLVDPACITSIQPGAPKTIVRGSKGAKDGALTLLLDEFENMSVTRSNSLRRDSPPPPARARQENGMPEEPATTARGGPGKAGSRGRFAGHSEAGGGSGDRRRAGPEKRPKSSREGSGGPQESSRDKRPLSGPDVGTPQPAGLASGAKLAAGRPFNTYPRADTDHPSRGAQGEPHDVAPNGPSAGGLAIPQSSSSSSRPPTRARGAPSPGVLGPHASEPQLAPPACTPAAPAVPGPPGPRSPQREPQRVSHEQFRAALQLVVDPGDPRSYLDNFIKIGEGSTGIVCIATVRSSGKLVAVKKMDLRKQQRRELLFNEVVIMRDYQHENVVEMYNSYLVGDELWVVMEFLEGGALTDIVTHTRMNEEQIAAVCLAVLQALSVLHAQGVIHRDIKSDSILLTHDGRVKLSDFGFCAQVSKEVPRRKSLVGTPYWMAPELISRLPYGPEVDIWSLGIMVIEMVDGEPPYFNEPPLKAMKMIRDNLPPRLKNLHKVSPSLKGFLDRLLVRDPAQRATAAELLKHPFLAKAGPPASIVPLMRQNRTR

Row | pIC50 | SMILES
1 | 5.00 to 6.00 | CN1CCN(c2ccc(Nc3ncc4ccc(=O)n(C5CCCC5)c4n3)cc2)CC1 [compound 57]
2 | 5.00 to 6.00 | O=c1ccc2cnc(Nc3ccc(N4CCOCC4)cc3)nc2n1C1CCCC1 [compound 58]
3 | 5.00 to 6.00 | CN(C)c1ccc(Nc2ncc3ccc(=O)n(C4CCCC4)c3n2)cc1 [compound 59]
4 | 5.00 to 6.00 | CN(C)CCNc1ccc(Nc2ncc3ccc(=O)n(C4CCCC4)c3n2)cc1 [compound 60]
5 | 5.00 to 6.00 | CN1CCN(c2ccc(Nc3ncc4ccc(=O)n(C5CCc6ccccc65)c4n3)cc2)CC1 (centres unmarked) [compound 62]
6 | > 6.00 | O=c1ccc2cnc(Nc3ccc(NC4CCCNC4)cc3)nc2n1Cc1ccccc1C(F)(F)F (centres unmarked) [compound 63]
7 | > 6.00 | O=c1ccc2cnc(Nc3ccc(NC4CCNCC4)cc3)nc2n1Cc1ccccc1C(F)(F)F [compound 64]
8 | 5.00 to 6.00 | CN1CCN(c2ccc(Nc3ncc4ccc(=O)n([C@@H]5CCCc6ccccc65)c4n3)cc2)CC1 [compound 66]
9 | 5.00 to 6.00 | CN1CCN(c2ccc(Nc3ncc4ccc(=O)n(C5CCCc6ccccc65)c4n3)cc2)CC1 (centres unmarked) [compound 67]
10 | > 6.00 | O=c1ccc2cnc(Nc3ccc(OC4CCNCC4)cc3)nc2n1Cc1ccccc1C(F)(F)F [compound 68]
11 | > 6.00 | O=c1ccc2cnc(Nc3ccc(OC4CCCNC4)cc3)nc2n1Cc1ccccc1C(F)(F)F (centres unmarked) [compound 70]
12 | 5.00 to 6.00 | CN1CCN(c2ccc(Nc3ncc4ccc(=O)n(C5CCOc6ccccc65)c4n3)cc2)CC1 (centres unmarked) [compound 71]
13 | < 5.00 | CN(C)CC(c1ccccc1)n1c(=O)ccc2cnc(Nc3ccc(N4CCOCC4)cc3)nc21 (centres unmarked) [compound 72]
14 | > 6.00 | CN1CCN(c2ccc(Nc3ncc4ccc(=O)n(C5Cc6ccccc6C5)c4n3)cc2)CC1 [compound 73]
15 | > 6.00 | CN1CCN(c2ccc(Nc3ncc4ccc(=O)n(C5CCc6ccccc6C5)c4n3)cc2)CC1 (centres unmarked) [compound 74]
16 | < 5.00 | CN(C)CC(c1ccccc1)n1c(=O)ccc2cnc(Nc3ccc(N4CCN(C)CC4)cc3)nc21 (centres unmarked) [compound 75]
17 | > 6.00 | O=c1ccc2cnc(Nc3ccc(N4CCNCC4)c(F)c3)nc2n1C1Cc2ccccc2C1 [compound 77]
18 | > 6.00 | O=c1ccc2cnc(Nc3ccc(N4CCNCC4)c(F)c3)nc2n1C1CCc2ccccc2C1 (centres unmarked) [compound 78]
19 | < 5.00 | CN1CCN(c2ccc(Nc3ncc4ccc(=O)n(Cc5ccc(F)cc5)c4n3)cc2)CC1 [compound 82]
20 | < 5.00 | COc1ccc(Cn2c(=O)ccc3cnc(Nc4ccc(N5CCN(C)CC5)cc4)nc32)cc1 [compound 83]
21 | < 5.00 | CN1CCN(c2ccc(Nc3ncc4ccc(=O)n(Cc5ccc(Cl)cc5)c4n3)cc2)CC1 [compound 84]
22 | 5.00 to 6.00 | CN1CCN(c2ccc(Nc3ncc4ccc(=O)n(Cc5ccccc5Cl)c4n3)cc2)CC1 [compound 85]
23 | 5.00 to 6.00 | COc1ccccc1Cn1c(=O)ccc2cnc(Nc3ccc(N4CCN(C)CC4)cc3)nc21 [compound 88]
24 | 5.00 to 6.00 | CN1CCN(c2ccc(Nc3ncc4ccc(=O)n(Cc5ccccc5F)c4n3)cc2)CC1 [compound 89]
25 | 5.00 to 6.00 | CN1CCN(c2ccc(Nc3ncc4ccc(=O)n(Cc5ccccn5)c4n3)cc2)CC1 [compound 90]
26 | < 5.00 | CN1CCN(c2ccc(Nc3ncc4ccc(=O)n(Cc5ccncc5)c4n3)cc2)CC1 [compound 91]
27 | 5.00 to 6.00 | Cc1ccccc1Cn1c(=O)ccc2cnc(Nc3ccc(N4CCN(C)CC4)cc3)nc21 [compound 93]

Each compound was assayed against PAK1 (Homo sapiens, UniProt Q13153) (assay: Z'Lyte fluorescence-based (FRET) PAK kinase assay, PAK1). Conditions: Table 1 of Example 29 (own compound numbering); 50 μM ATP.
Assay type: biochemical
Description: as §1, §2, §3, §4, §5, §6
as §1, with “non-phosphorylated but” for “non-phosphorylated bat”, “peptide (Z'Lyte™” for “peptide (Z′Lyte™”, “assay platform” for “assay platform;”
as §2, with “mM MgCl2;” for “nM MgCl1;”
as §4, with “at Km” for “at Kin”, “[50 μMATP” for “[50 ┌M ATP”, “75 µM” for “75 ┌M”, “[…]” for “10 μl.”, “kinase reaction.” for “kinase reaction,”, “[…]” for “5 μl”
as §7

Sequence of PAK1 (Q13153 whole entry): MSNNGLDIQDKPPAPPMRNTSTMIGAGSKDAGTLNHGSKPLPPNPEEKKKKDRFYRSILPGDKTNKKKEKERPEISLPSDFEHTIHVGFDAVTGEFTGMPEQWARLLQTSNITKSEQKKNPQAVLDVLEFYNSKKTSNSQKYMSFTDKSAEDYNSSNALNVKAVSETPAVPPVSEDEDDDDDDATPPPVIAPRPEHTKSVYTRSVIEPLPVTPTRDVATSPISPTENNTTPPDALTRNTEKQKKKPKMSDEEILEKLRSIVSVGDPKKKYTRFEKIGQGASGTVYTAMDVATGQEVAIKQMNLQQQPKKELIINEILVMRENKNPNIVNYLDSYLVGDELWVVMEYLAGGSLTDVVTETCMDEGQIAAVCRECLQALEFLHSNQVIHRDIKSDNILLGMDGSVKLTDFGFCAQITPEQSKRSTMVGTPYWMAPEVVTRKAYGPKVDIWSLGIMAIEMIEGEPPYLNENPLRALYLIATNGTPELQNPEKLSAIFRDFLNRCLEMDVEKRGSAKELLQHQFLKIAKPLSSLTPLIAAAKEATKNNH

Row | pIC50 | SMILES
28 | > 6.00 | CN1CCN(c2ccc(Nc3ncc4ccc(=O)n(C5CCCC5)c4n3)cc2)CC1 [compound 57]
29 | < 5.00 | O=c1ccc2cnc(Nc3ccc(N4CCOCC4)cc3)nc2n1C1CCCC1 [compound 58]
30 | < 5.00 | CN(C)c1ccc(Nc2ncc3ccc(=O)n(C4CCCC4)c3n2)cc1 [compound 59]
31 | 5.00 to 6.00 | CN(C)CCNc1ccc(Nc2ncc3ccc(=O)n(C4CCCC4)c3n2)cc1 [compound 60]
32 | > 6.00 | CN1CCN(c2ccc(Nc3ncc4ccc(=O)n(C5CCc6ccccc65)c4n3)cc2)CC1 (centres unmarked) [compound 62]
33 | > 6.00 | O=c1ccc2cnc(Nc3ccc(NC4CCCNC4)cc3)nc2n1Cc1ccccc1C(F)(F)F (centres unmarked) [compound 63]
34 | > 6.00 | O=c1ccc2cnc(Nc3ccc(NC4CCNCC4)cc3)nc2n1Cc1ccccc1C(F)(F)F [compound 64]
35 | 5.00 to 6.00 | CN1CCN(c2ccc(Nc3ncc4ccc(=O)n([C@@H]5CCCc6ccccc65)c4n3)cc2)CC1 [compound 66]
36 | > 6.00 | CN1CCN(c2ccc(Nc3ncc4ccc(=O)n(C5CCCc6ccccc65)c4n3)cc2)CC1 (centres unmarked) [compound 67]
37 | > 6.00 | O=c1ccc2cnc(Nc3ccc(OC4CCNCC4)cc3)nc2n1Cc1ccccc1C(F)(F)F [compound 68]
38 | > 6.00 | O=c1ccc2cnc(Nc3ccc(OC4CCCNC4)cc3)nc2n1Cc1ccccc1C(F)(F)F (centres unmarked) [compound 70]
39 | 5.00 to 6.00 | CN1CCN(c2ccc(Nc3ncc4ccc(=O)n(C5CCOc6ccccc65)c4n3)cc2)CC1 (centres unmarked) [compound 71]
40 | < 5.00 | CN(C)CC(c1ccccc1)n1c(=O)ccc2cnc(Nc3ccc(N4CCOCC4)cc3)nc21 (centres unmarked) [compound 72]
41 | > 6.00 | CN1CCN(c2ccc(Nc3ncc4ccc(=O)n(C5Cc6ccccc6C5)c4n3)cc2)CC1 [compound 73]
42 | > 6.00 | CN1CCN(c2ccc(Nc3ncc4ccc(=O)n(C5CCc6ccccc6C5)c4n3)cc2)CC1 (centres unmarked) [compound 74]
43 | < 5.00 | CN(C)CC(c1ccccc1)n1c(=O)ccc2cnc(Nc3ccc(N4CCN(C)CC4)cc3)nc21 (centres unmarked) [compound 75]
44 | > 6.00 | O=c1ccc2cnc(Nc3ccc(N4CCNCC4)c(F)c3)nc2n1C1Cc2ccccc2C1 [compound 77]
45 | > 6.00 | O=c1ccc2cnc(Nc3ccc(N4CCNCC4)c(F)c3)nc2n1C1CCc2ccccc2C1 (centres unmarked) [compound 78]
46 | 5.00 to 6.00 | CN1CCN(c2ccc(Nc3ncc4ccc(=O)n(Cc5ccc(F)cc5)c4n3)cc2)CC1 [compound 82]
47 | < 5.00 | COc1ccc(Cn2c(=O)ccc3cnc(Nc4ccc(N5CCN(C)CC5)cc4)nc32)cc1 [compound 83]
48 | 5.00 to 6.00 | CN1CCN(c2ccc(Nc3ncc4ccc(=O)n(Cc5ccc(Cl)cc5)c4n3)cc2)CC1 [compound 84]
49 | > 6.00 | CN1CCN(c2ccc(Nc3ncc4ccc(=O)n(Cc5ccccc5Cl)c4n3)cc2)CC1 [compound 85]
50 | > 6.00 | COc1ccccc1Cn1c(=O)ccc2cnc(Nc3ccc(N4CCN(C)CC4)cc3)nc21 [compound 88]
51 | 5.00 to 6.00 | CN1CCN(c2ccc(Nc3ncc4ccc(=O)n(Cc5ccccc5F)c4n3)cc2)CC1 [compound 89]
52 | 5.00 to 6.00 | CN1CCN(c2ccc(Nc3ncc4ccc(=O)n(Cc5ccccn5)c4n3)cc2)CC1 [compound 90]
53 | 5.00 to 6.00 | CN1CCN(c2ccc(Nc3ncc4ccc(=O)n(Cc5ccncc5)c4n3)cc2)CC1 [compound 91]
